Assay results reported in ChEMBL document CHEMBL4000193, “Discovery of a Chemical Probe Bisamide (CCT251236): An Orally Bioavailable Efficacious Pirin Ligand from a Heat Shock Transcription Factor 1 (HSF1) Phenotypic Screen” (J Med Chem, 2017).
Active and inactive are the calls of the source. The calls are words filed in the database; no cut-off is given here.

How the values were obtained:
WM 266-4 = assay: Anti-migratory activity against human WM266.4 cells at 1 to 1000 nM after 30 hrs by scratch-wound assay; assay type: functional, cell-based
[1] = Drug uptake in NCr nude mouse tumor xenografted with human SKOV3 cells at 20 mg/kg, po qd measured after 33 days; assay type: ADME, organism-based, Neoplasm; details: read-out: Drug uptake
SK-OV-3 = assay: cells; details: Homo sapiens, SK-OV-3, 96 h, read-out: pGI50 (converted)
Description: Antiproliferative activity against human SKOV3 cells after 96 hrs by CellTiter Blue assay

With `Cc1ccc(NC(=O)c2cccc3c2OCCO3)cc1NC(=O)c1ccc2nc(OCCN3CCCC3)ccc2c1` the Activity (WM 266-4) was “inactive”.

Work on `Cc1ccc(NC(=O)c2ccc3c(c2)OCCO3)cc1NC(=O)c1ccc2nc(OCCN3CCCC3)ccc2c1` yielded a concentration at […] [1] of 940 nM.

For `Cc1ccc(NC(=O)c2ccc3c(c2)OCCO3)cc1NC(=O)c1ccc2nc(OCCN3CCCCC3)ccc2c1`, the GI50 (SK-OV-3) was 1.07 nM.
